Consider 3 substances from publication PMC10261008, “A peptide triple agonist of GLP-1, neuropeptide Y1, and neuropeptide Y2 receptors promotes glycemic control and weight loss” (Scientific Reports, 2023).

Square brackets hold non-standard residues; d marks the D form. Ends that are not written are not given here.

The target in series [1] is T1, human GLP-1R (Homo sapiens, UniProt P43220). Put plainly: SPR binding to His-tagged GLP-1R on NTA sensor. The note with it: in-house SPR, 0.1–100 nM, duplicate. On the technique in general: In SPR one partner is held on a chip, and binding of the other changes the refractive index at the surface.
Series [2] deals with T1, human GLP-1R. Put plainly: cAMP FRET agonism at GLP-1R in H188-GLP-1R transduced HEK293 cells. In kind it is cell-based. The note with it: FRET ratio tracking cAMP, Fig. 1A.
Protocol: H188 virally transduced HEK293 cells stably expressing human GLP-1R were obtained from Novo Nordisk A/S for use in FRET assays. HEK293 C24 cells stably expressing the H188 FRET reporter were obtained by G418 selection and grown in monolayers to ∼70% confluency in 100 cm^2 tissue culture dishes and were then transfected with plasmids (11 μg/dish) encoding human GLP-1R, human Y2-R, or human Y1-R. Transfected cells were then incubated for 48 h in fresh culture media. For real-time FRET kinetic assays, cells were harvested, resuspended in 21 mL of SES buffer, and plated at 196 μL per well. […] Y1-R and Y2-R agonism to stimulate Gi proteins and to inhibit adenylyl cyclase was monitored by detecting the ability of PYY peptides, GEP44, or GEP12 to counteract the ability of Adenosine (acting through endogenous A2B receptor and Gs proteins) to increase levels of cAMP. For these assays, increased levels of cAMP were measured as an increase of the 485/535 nm FRET ratio serving as a readout for binding of cAMP to the H188 biosensor that is based on the exchange protein activated by cAMP[15].
Series [3] has as its target T2, human Y1-R (Homo sapiens, UniProt P25929).
T2 construct: His tag; purchased antibodies-online Inc. ABIN7086253
T2 sequence (P25929 1-384): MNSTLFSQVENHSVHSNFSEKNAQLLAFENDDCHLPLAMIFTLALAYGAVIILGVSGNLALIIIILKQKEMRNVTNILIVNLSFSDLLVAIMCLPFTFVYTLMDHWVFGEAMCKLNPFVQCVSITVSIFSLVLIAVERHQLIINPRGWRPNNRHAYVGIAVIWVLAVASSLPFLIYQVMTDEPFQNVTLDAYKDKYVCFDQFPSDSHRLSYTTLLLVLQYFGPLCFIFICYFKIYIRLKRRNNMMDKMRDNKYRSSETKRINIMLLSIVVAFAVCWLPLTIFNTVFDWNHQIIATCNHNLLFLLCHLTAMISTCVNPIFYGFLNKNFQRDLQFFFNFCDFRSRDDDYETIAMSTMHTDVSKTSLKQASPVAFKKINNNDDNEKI
Put plainly: SPR binding at Y1-R. The note with it: in-house SPR, 4 pM–19 µM; read-out: half-maximal binding at Y1-R.
Protocol: Peptides were precipitated with cold (4 °C) diethyl ether and purified on an Agilent 1200 series High-Performance Liquid Chromatography (HPLC) instrument (10–75% HPLC-grade acetonitrile for 20 min at a 2 mL/min flow rate over an Agilent Zorbax C18 column (5 µm, 9.4 × 250 mm) tracked at 220, 254, and 280 nm. Peptides were purified to > 95%. Peptide binding was assayed by EuroscreenFast (Gosselies, Belgium) or in-house with a Nicoya Open Surface Plasmon Resonance (SPR) instrument. Internalization and β-arrestin recruitment assays were performed by Eurofins Discovery (Fremont, CA, USA).
Peptide binding to human Y1-R was performed in-house by SPR.

In series [4] the test system is DIO Wistar rats. Kind of series: Dose escalation study of food intake and tolerability in diet-induced obese male rats. It counts as in vivo, rat. The note with it: s.c. once daily.
Protocol: Wistar rats purchased from Charles River Laboratories (Wilmington, MA) were used in this study. The rats were provided with ad libitum access to food and water and were kept on a 12 h light/12 h dark cycle. For all other experiments, male rats (51–75 g; approximately 4 weeks of age) were fed a diet with 60% of the calories provided by fat (D12492; Research Diets, Inc; New Brunswick, NJ; 5.21 kcal/g) for approximately five months before the start of the study generate diet-induced obesity (DIO). Animals were individually housed in a temperature (22 ± 1 °C) and humidity-controlled (57 ± 4%) room. All body weight measurements were taken just before the start of the dark cycle.
GEP44 stock solutions were prepared using sterile ultra-pure H2O and gently agitated at 4 °C for > 24 h and then aliquoted and stored at − 20 °C. […] GEP12 (aliquots up to 5 mg) was dissolved in 100 µL DMSO and mixed at 1000 rpm for three min to create a stock solution. Stock solutions were diluted to working solutions in 0.9% normal saline, resulting in a final DMSO concentration of < 2%. […]
Rats were singly housed in BioDAQ cages and allowed to acclimate for at least 10 days before the start of this study. […] Body weight was assessed daily just before the start of the dark cycle. Food and water were available ad libitum and consumption was monitored continuously.
Series [5] concerns lean and diet-induced obese (DIO) rats. On the set-up: method as in PMID 33449689. The note with it: rat, in vivo; cited from earlier work.
Series [6] concerns the target T1, human GLP-1R. Kind of series: Agonist-activated internalization of GLP-1R. In kind it is cell-based. The note with it: dose–response 30 pM–1 µM, duplicate.
Protocol: Human GLP-1R (Gs-coupled) cell-based agonist-activated internalization assays were performed by Eurofins Discovery.
For series [7], the target named is T3, human Y2-R (Homo sapiens, UniProt P49146).
T3 sequence (P49146 1-381): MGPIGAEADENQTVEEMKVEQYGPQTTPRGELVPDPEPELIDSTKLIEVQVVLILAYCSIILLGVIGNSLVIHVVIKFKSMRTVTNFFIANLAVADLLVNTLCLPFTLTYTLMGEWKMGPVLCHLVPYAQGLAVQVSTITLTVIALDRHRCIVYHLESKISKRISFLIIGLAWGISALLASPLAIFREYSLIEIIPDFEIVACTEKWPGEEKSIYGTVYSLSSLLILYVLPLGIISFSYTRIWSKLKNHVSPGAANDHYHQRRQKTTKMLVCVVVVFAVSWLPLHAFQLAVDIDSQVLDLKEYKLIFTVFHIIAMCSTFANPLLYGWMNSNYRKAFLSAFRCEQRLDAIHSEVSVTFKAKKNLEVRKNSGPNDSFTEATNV
Put plainly: Y2-R agonism: counteraction of adenosine-stimulated cAMP (FRET) in HEK293 C24 cells transfected with Y2-R. It counts as cell-based. The note with it: HEK293 C24 cells transiently transfected with Y2-R, 20 min pre-treatment; also reported previously [16]; read-out: IC50, inhibition of adenosine-stimulated cAMP production at Y2-R. Here is the method:
H188 virally transduced HEK293 cells stably expressing human GLP-1R were obtained from Novo Nordisk A/S for use in FRET assays. HEK293 C24 cells stably expressing the H188 FRET reporter were obtained by G418 selection and grown in monolayers to ∼70% confluency in 100 cm^2 tissue culture dishes and were then transfected with plasmids (11 μg/dish) encoding human GLP-1R, human Y2-R, or human Y1-R. Transfected cells were then incubated for 48 h in fresh culture media. For real-time FRET kinetic assays, cells were harvested, resuspended in 21 mL of SES buffer, and plated at 196 μL per well. Plated cells were pretreated with 4 μL of agonist, or antagonist (Ex9-39 (GLP-1R antagonist) or BIIE0246 (Y2-R antagonist)), at a given target concentration and incubated for 20 min before performing the assay. Y1-R and Y2-R agonism to stimulate Gi proteins and to inhibit adenylyl cyclase was monitored by detecting the ability of PYY peptides, GEP44, or GEP12 to counteract the ability of Adenosine (acting through endogenous A2B receptor and Gs proteins) to increase levels of cAMP. For these assays, increased levels of cAMP were measured as an increase of the 485/535 nm FRET ratio serving as a readout for binding of cAMP to the H188 biosensor that is based on the exchange protein activated by cAMP[15].
Background: cAMP levels reflect the balance of adenylyl cyclase and phosphodiesterase activity.

Series [8] deals with T3, human Y2-R. Kind of series: Radioligand competitive binding assay at Y2-R in CHO-K1 cells. The note with it: 1 pM–1 µM, duplicate independent runs, read-out: half-maximal binding at Y2-R.
Series [9] has as its target T1, human GLP-1R. Kind of series: β-arrestin-2 recruitment at GLP-1R. It counts as cell-based. The note with it: dose–response 5.51 pM–551 nM, duplicate.
Series [10] has as its system patients. The note with it: cited from earlier work.

T1 sequence (P43220 24-463): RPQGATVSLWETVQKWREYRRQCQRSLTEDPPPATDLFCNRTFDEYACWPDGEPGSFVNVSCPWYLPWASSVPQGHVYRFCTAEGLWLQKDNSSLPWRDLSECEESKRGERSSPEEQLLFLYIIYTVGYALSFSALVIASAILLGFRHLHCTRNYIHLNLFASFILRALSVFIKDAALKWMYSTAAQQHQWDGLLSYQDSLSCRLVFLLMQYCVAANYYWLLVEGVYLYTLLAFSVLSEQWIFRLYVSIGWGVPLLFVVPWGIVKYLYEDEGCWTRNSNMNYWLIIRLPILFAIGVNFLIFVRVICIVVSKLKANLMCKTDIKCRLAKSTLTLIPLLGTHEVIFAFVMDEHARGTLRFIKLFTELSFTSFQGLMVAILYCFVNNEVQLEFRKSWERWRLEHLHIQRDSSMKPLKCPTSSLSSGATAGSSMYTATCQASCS

Turning to “F[dS]QGTFTSDLSKYLEEEAVREFIAWLKNGGPSRHYLNLVTRQRY-NH2 [GEP12]”, in series [1], the IC50 stood at 19.2 nM. The EC50 (commonly the midpoint of the concentration-response curve) in [2] was 17.3 nM.
As for “H[dS]QGTFTSDLSKYLEEEAVREFIAWLKNGGPSRHYLNLVTRQRY-NH2 [GEP44]”, the IC50 in [3] is 86.6 nM; in [7], 34 nM; in [8], 65.8 nM. Besides, the “no observed adverse effect level (NOAEL)” value in series [4] is 20 nmol/kg/day. Besides, the visceral malaise entry in [5] is recorded as “no visceral malaise”. The results for the EC50 in [6] and in [9] were 3.97 nM and 1.59 nM, respectively.
tirzepatide: the “patients achieving a weight loss of 20% and more” value in series [10] (10 or 15 mg per week) is on record as “at least 50%”. Moreover, in [10] (human, in vivo), the “diarrhea, incidence” value is reported as 15–17%; the “discontinuation of treatment due to gastrointestinal symptoms” value is reported as 3–7%; the “nausea, incidence” value is given as 12–24%; the “vomiting, incidence” value is recorded as 6–10%.
